Results published in the supplement of paper PMC6733853.

Key:
[1] = biological target: delta opioid receptor (rat) (UniProt P33533); assay: Log(tau/KA) transduction coefficient (log10 (M-1)); higher = more effective agonism; conditions: receptor: rat DOR
mu opioid receptor (rat) [2] = biological target: mu opioid receptor (rat) (UniProt P33535); assay: as above; conditions: receptor: rat MOR
[3] = biological target: delta opioid receptor (human) (UniProt P41143); assay: as above; conditions: receptor: human DOR
[4] = biological target: mu opioid receptor (human) (UniProt P35372); assay: as above; conditions: receptor: human MOR
[5] = biological target: delta opioid receptor (rat) (UniProt P33533)
mu opioid receptor (rat) [6] = biological target: mu opioid receptor (rat) (UniProt P33535)

mu opioid receptor (human), sequence (P35372 whole entry): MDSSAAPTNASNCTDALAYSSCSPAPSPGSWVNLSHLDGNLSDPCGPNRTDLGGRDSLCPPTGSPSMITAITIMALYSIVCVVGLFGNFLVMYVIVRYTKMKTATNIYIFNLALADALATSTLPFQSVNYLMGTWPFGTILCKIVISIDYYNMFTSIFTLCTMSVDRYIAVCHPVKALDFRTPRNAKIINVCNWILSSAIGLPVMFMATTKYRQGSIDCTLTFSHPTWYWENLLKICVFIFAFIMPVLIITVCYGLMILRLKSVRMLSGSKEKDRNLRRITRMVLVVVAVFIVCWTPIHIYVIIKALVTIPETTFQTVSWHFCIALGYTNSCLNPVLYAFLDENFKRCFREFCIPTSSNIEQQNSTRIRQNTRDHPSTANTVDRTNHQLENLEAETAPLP
delta opioid receptor (rat), sequence (P33533 whole entry): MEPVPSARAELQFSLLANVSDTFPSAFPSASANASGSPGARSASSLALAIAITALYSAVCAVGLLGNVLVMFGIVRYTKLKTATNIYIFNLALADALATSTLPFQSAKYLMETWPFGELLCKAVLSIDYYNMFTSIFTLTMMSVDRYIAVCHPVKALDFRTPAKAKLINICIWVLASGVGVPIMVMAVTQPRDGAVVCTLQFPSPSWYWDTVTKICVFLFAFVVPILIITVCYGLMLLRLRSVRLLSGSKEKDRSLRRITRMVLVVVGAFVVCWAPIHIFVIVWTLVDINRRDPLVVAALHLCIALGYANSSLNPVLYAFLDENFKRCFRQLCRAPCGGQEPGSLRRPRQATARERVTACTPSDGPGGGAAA
delta opioid receptor (human), sequence (P41143 whole entry): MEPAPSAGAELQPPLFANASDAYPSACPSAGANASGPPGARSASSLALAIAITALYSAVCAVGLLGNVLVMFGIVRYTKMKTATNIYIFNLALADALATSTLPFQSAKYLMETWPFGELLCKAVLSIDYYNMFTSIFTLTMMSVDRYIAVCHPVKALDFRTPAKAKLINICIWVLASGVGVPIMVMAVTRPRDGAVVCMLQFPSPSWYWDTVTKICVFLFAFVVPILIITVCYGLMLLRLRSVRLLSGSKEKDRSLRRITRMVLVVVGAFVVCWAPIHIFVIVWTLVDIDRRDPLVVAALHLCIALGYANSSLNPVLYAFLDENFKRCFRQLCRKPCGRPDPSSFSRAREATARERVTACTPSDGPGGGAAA
mu opioid receptor (rat), sequence (P33535 whole entry): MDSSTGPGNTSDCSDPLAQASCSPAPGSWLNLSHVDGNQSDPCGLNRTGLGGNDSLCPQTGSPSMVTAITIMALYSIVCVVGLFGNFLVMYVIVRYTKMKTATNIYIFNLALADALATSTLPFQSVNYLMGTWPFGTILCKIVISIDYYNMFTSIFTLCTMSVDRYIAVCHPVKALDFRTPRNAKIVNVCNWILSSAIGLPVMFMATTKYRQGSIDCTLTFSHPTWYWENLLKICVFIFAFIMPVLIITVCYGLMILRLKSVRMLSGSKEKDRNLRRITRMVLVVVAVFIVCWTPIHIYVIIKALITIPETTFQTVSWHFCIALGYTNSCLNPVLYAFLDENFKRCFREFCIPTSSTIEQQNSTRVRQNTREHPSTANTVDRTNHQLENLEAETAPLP

CN(C)C(=O)C(CCN1CCC(O)(c2ccc(Cl)cc2)CC1)(c1ccccc1)c1ccccc1 [Loperamide]
Log(tau/KA) transduction coefficient (log10)
Conditions | Gαi1 | Gαi2 | Gαo | Kir | cAMP | βarrestine 1 | βarrestine 2 | βarrestine 2-GRK2 | βarrestine 2-GRK5 | βarrestine 2-GRK6
[1] | 4.78 | 5.24 | 5.22 | 5.02 | 5.9 | 3.96 | 4.1 | 4.29 | 4.61 | 4.48
[3] | 4.52 | 5.79 | 5.28 | 5.54 | 7.28 | 4.05 | 4.37 | 4.62 | 4.71 | 4.63
mu opioid receptor (rat) [2] | 7.2 | 8.27 | 7.56 | 6.46 | 7.69 | 6.08 | 5.68 | 6.37 | 6.39 | 6.04

CCC1(c2cccc(O)c2)CCCCN(C)C1 (stereo not given) [Meptazinol]
Log(tau/KA) transduction coefficient (log10)
Conditions | Gαi1 | Gαi2 | Gαo | Kir | cAMP
[4] | 5.23 | 6.1 | 6.31 | 4.84 | 8.02
mu opioid receptor (rat) [2] | 5.15 | 6.21 | 5.38 | 5.41 | 6.58

COc1ccc2c3c1O[C@H]1C(=O)CC[C@@]4(O)[C@@H](C2)N(C)CC[C@]314 [Oxycodone]
Log(tau/KA) transduction coefficient (log10)
Conditions | Gαi1 | Gαi2 | Gαo | Kir | cAMP | βarrestine 1 | βarrestine 2 | βarrestine 2-GRK2 | βarrestine 2-GRK5 | βarrestine 2-GRK6
[1] | 2.98 | 4.41 | 3.8 | 3.29 | 6.08 | – | 3.12 | 3.16 | 3.5 | 3.31
[3] | 3.52 | 5.21 | 4.26 | 3.72 | 6.63 | – | – | 3.82 | 3.15 | 3.02
mu opioid receptor (rat) [2] | 5.49 | 6.52 | 5.91 | 5.97 | 7.45 | 5.5 | – | 4.81 | 5.06 | 4.81

CO[C@@]12CC[C@@]3(C[C@@H]1[C@](C)(O)C(C)(C)C)[C@H]1Cc4ccc(O)c5c4[C@@]3(CCN1CC1CC1)[C@H]2O5 [Buprenorphine]
Log(tau/KA) transduction coefficient (log10)
Conditions | Gαi1 | Gαi2 | Gαo | Kir | cAMP | βarrestine 2 | βarrestine 2-GRK2 | βarrestine 2-GRK5 | βarrestine 2-GRK6
[1] | 6.16 | 6.14 | 6.06 | 4.6 | 7.87 | – | – | – | –
[3] | 5.51 | 6.73 | 6.61 | 4.88 | 8.45 | – | – | – | 3.5
mu opioid receptor (rat) [2] | 6.88 | 7.63 | 7.28 | 8.05 | 6.93 | 5.04 | 5.79 | 5.36 | –

CSCC[C@H](NC(=O)[C@H](Cc1ccccc1)NC(=O)CNC(=O)CNC(=O)[C@@H](N)Cc1ccc(O)cc1)C(=O)O [Met-Enk]
Log(tau/KA) transduction coefficient (log10)
Conditions | Gαi1 | Gαi2 | Gαo | Kir | cAMP | βarrestine 1 | βarrestine 2 | βarrestine 2-GRK2 | βarrestine 2-GRK5 | βarrestine 2-GRK6
[1] | 5.86 | 6.55 | 6.44 | 4.97 | 9.4 | 6.29 | 6.58 | 6.67 | 7.03 | 6.83
[3] | 5.92 | 7.02 | 6.59 | 7.27 | 8.98 | 6.24 | 6.28 | 6.57 | 7.12 | 6.88
[4] | 6.47 | 7.32 | 7.4 | 6.58 | 8.62 | 5.9 | 5.97 | 6.66 | 6.65 | 6.36
mu opioid receptor (rat) [2] | 7.24 | 8.73 | 6.21 | 6.72 | 8.44 | 5.63 | 5.65 | 6.24 | 6.35 | 6.06

CN(C)C(=O)C(CCN1CCC(O)(c2ccc(Cl)cc2)CC1)(c1ccccc1)c1ccccc1 [Loperamide] (receptor: rat DOR)
[5]
Conditions | pEC50
Gαi1 | 5.05
Gαi2 | 5.42
Gαo | 5.51
Kir | 5.23
cAMP | 6.1
βarrestine 1 | 4.55
βarrestine 2 | 4.47
βarrestine 2-GRK2 | 4.36
βarrestine 2-GRK5 | 4.83
βarrestine 2-GRK6 | 4.54

COc1cccc(C2(O)CCCCC2CN(C)C)c1 (stereo not given) [Tramadol]
Log(tau/KA) transduction coefficient (log10)
Conditions | Gαi1 | Gαi2 | Gαo | Kir | cAMP
[4] | 3.39 | 4.54 | 4.27 | 3.78 | 6.29
mu opioid receptor (rat) [2] | 2.98 | 4.73 | 3.82 | 3.81 | 5.02

CN1CC[C@]23c4c5ccc(O)c4O[C@H]2[C@@H](O)C=C[C@H]3[C@H]1C5 [Morphine]
Log(tau/KA) transduction coefficient (log10)
Conditions | Gαi1 | Gαi2 | Gαo | Kir | cAMP | βarrestine 2 | βarrestine 2-GRK2 | βarrestine 2-GRK5 | βarrestine 2-GRK6
[1] | 4.41 | 5.31 | 5.14 | 4.79 | 6.68 | 4.16 | 4.24 | 4.53 | 4.2
[3] | 4.26 | 5.75 | 5.24 | 5.05 | 8.19 | – | – | 4.04 | 3.94
mu opioid receptor (rat) [2] | 6.9 | 8.35 | 7.99 | 7.44 | 8.08 | 5.69 | 6.29 | 6.37 | 5.35

C[C@@H](NC(=O)[C@@H](N)Cc1ccc(O)cc1)C(=O)NCC(=O)N(C)[C@@H](Cc1ccccc1)C(=O)NCCO [DAMGO]
mu opioid receptor (rat) [2]
Conditions | Log(tau/KA) transduction coefficient (log10)
Gαi1 | 6.18
Gαi2 | 7.5
Gαo | 6.49
Kir | 7.11
cAMP | 8.44
βarrestine 1 | 5.59
βarrestine 2 | 5.51
βarrestine 2-GRK2 | 6.21
βarrestine 2-GRK5 | 6.26
βarrestine 2-GRK6 | 5.9

CCC1(c2cccc(O)c2)CCCCN(C)C1 (stereo not given) [Meptazinol] (receptor: rat MOR)
mu opioid receptor (rat) [6]
Conditions | pEC50
Gαi1 | 5.94
Gαi2 | 6.52
Gαo | 6.28
Kir | 6.08
cAMP | 6.99

CO[C@@]12CC[C@@]3(C[C@@H]1[C@](C)(O)C(C)(C)C)[C@H]1Cc4ccc(O)c5c4[C@@]3(CCN1CC1CC1)[C@H]2O5 [Buprenorphine] (receptor: rat DOR)
[5]
Conditions | pEC50
Gαi1 | 7.49
Gαi2 | 6.88
Gαo | 7.28
Kir | 5.53
cAMP | 7.78
